Calls of active or inactive are those of the source.
Columns and labels:
Trypsin (Homo sapiens) = Trypsin (Homo sapiens) (UniProt P07477+P07478+P35030); assay: Inhibition of trypsin (unknown origin) up to 10 ug/ml; type: protein assay
[1] = biological target: Cannabinoid receptor 2 (Homo sapiens) (UniProt P34972); assay: Binding affinity to CB2 receptor (unknown origin) up to 10 ug/ml
[2] = biological target: Cathepsin B (Homo sapiens) (UniProt P07858); assay: Inhibition of cathepsin B (unknown origin) up to 10 ug/ml
Priestia megaterium = assay: Antibacterial activity against Bacillus megaterium DSM 32 up to 1 mg/ml by agar diffusion method; type: functional, organism-based
Microbotryum violaceum = assay: Antifungal activity against Microbotryum violaceum up to 1 mg/ml by agar diffusion method; type: functional, organism-based
Aspergillus ruber = assay: Antifungal activity against Eurotium rubrum DSM 62631 up to 1 mg/ml by agar diffusion method; type: functional
Mycotypha microspora = assay: Antifungal activity against Mycotypha microspora up to 1 mg/ml by agar diffusion method; type: functional, organism-based
[3] = biological target: T1, Neutrophil elastase (Homo sapiens) (UniProt P08246); assay: Inhibition of human leucocyte elastase up to 10 ug/ml
T1 sequence (whole entry): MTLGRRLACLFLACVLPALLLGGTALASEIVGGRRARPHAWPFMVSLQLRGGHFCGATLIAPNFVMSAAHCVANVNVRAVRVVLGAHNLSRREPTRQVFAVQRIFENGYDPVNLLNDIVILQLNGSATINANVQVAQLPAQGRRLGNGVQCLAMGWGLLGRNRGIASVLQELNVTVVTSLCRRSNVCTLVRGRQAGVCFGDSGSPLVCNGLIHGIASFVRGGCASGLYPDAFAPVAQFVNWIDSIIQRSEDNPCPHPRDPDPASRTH

[4] = biological target: Prothrombin (Homo sapiens) (UniProt P00734); assay: Inhibition of human thrombin up to 10 ug/ml
Homo sapiens = species: Homo sapiens; assay: Inhibition of chymotrypsin (unknown origin) up to 10 ug/ml
[5] = biological target: Cathepsin S (Homo sapiens) (UniProt P25774); assay: Inhibition of cathepsin S (unknown origin) up to 10 ug/ml
[6] = biological target: Procathepsin L (Homo sapiens) (UniProt P07711); assay: Inhibition of cathepsin L (unknown origin) up to 10 ug/ml
[7] = biological target: Cannabinoid receptor 1 (Homo sapiens) (UniProt P21554); assay: Binding affinity to CB1 receptor (unknown origin) up to 10 ug/ml
Escherichia coli = assay: Antibacterial activity against Escherichia coli DSM 498 up to 1 mg/ml by agar diffusion method; type: functional, organism-based

Chain of Cannabinoid receptor 1 (Homo sapiens) (P21554 whole entry, the tested form may be a part): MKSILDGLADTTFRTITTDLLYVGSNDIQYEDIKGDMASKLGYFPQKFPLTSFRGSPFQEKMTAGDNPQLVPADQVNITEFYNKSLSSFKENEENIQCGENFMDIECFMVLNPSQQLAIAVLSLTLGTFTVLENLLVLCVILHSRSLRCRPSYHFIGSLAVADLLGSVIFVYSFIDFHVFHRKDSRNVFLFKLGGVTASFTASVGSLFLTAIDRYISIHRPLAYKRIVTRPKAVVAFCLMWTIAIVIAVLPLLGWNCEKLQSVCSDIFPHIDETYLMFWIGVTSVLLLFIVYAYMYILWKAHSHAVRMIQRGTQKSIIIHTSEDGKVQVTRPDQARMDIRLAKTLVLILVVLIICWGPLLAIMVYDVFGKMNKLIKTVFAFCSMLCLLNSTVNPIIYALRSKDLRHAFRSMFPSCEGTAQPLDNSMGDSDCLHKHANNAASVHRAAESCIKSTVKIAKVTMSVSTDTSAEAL
Chain of Cannabinoid receptor 2 (Homo sapiens) (P34972 whole entry): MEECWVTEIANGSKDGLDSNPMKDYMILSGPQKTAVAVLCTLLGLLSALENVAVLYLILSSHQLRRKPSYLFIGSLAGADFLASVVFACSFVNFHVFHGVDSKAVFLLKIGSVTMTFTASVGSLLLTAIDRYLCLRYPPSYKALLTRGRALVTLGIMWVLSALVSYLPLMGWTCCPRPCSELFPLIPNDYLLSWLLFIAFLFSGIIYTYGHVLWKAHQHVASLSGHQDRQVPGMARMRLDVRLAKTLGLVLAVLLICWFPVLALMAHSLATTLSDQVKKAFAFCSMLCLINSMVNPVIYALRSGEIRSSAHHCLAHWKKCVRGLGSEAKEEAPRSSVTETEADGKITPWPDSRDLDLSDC
Chain of Procathepsin L (Homo sapiens) (P07711 114-333 limits assumed): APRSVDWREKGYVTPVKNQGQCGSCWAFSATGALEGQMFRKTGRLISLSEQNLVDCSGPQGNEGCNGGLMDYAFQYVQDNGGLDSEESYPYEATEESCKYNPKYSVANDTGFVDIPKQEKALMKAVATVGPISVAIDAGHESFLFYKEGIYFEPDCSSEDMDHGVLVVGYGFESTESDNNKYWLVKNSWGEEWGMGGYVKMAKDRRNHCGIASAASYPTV
Chain of Cathepsin S (Homo sapiens) (P25774 115-331 limits assumed): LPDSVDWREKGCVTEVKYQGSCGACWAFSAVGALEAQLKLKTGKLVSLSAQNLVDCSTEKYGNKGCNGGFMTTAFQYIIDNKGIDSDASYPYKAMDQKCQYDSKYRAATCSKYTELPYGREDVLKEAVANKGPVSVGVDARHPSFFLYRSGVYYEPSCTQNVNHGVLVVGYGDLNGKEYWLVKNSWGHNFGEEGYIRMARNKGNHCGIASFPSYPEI

C=C1C(=O)N(C)CC(O)N1C(=O)/C=C/C=C\CC(C)C (centres undefined)
inactive: inhibition (Trypsin (Homo sapiens)) | Activity [1] | inhibition [2] | Activity (Priestia megaterium) | Activity (Microbotryum violaceum) | Activity (Aspergillus ruber) | Activity (Mycotypha microspora) | inhibition [3] | inhibition [4] | inhibition (Homo sapiens) | inhibition [5] | inhibition [6] | Activity [7] | Activity (Escherichia coli)

— ChEMBL document CHEMBL3102742, “Corallorazines from the myxobacterium Corallococcus coralloides” (J Nat Prod, 2014)
